Reference: article PMC9889419 (Pharmacological Reports, 2022)
Counter-ions that a name gives are not always drawn.

Experiments:
P2X = test: Radioligand binding; set-up: species or system rat; details: 100 μM
Description: (§1) Radioligand binding. Radioligand binding assays were performed at Eurofins CEREP (France). The results are expressed as a percent of control specific binding (measured specific binding*100/control specific binding) and as a percent inhibition of control specific binding (100-(measured specific binding*100)/control specific binding) obtained in the presence of the test compounds. The IC50 values (concentration causing a half-maximal inhibition of control specific binding) and Hill coefficients (nH) were determined by non-linear regression analysis of the competition curves generated with mean replicate values using Hill equation curve fitting (Y = D + [A-D]/[1 + (C/C50)^nH], where Y = specific binding, A = left asymptote of the curve, D = right asymptote of the curve, C = compound concentration, C50 = IC50, and nH = slope factor). This analysis was performed using software developed at Cerep (Hill software) and validated by comparison with data generated by the commercial software SigmaPlot® 4.0 for Windows® (© 1997 by SPSS Inc.). The inhibition constants (Ki) were calculated using the Cheng Prusoff equation (Ki = IC50/[1 + L/KD], where L = concentration of radioligand in the assay, and KD = affinity of the radioligand for the receptor). A scatchard plot is used to determine the Kd.

KV channel = test: Radioligand binding; set-up: species or system rat; details: 100 μM
Description: as §1

Cl- channel (GABA-gated) = test: Radioligand binding; set-up: species or system rat; details: 100 μM
Description: as §1

PCP = test: Radioligand binding; set-up: species or system rat; details: 100 μM
Description: as §1

GABA (non-selective) = test: Radioligand binding; set-up: species or system rat; details: 100 μM
Description: as §1

SKCa channel = test: Radioligand binding; set-up: species or system rat; details: 100 μM
Description: as §1

P2Y = test: Radioligand binding; set-up: species or system rat; details: 100 μM
Description: as §1

BB (non-selective) = test: Radioligand binding; set-up: species or system rat; details: 100 μM
Description: as §1

STZ-treated mice = test: Streptozotocin-induced diabetic neuropathy, hot plate test; format: in vivo
Description: Induction of diabetes. To induce diabetes the mice were injected with a single ip streptozotocin (STZ, Sigma-Aldrich, Germany) dose (200 mg/kg) dissolved in 0.1 N citrate buffer. Blood glucose levels were measured 1 h before and repeatedly 1, 2 and 3 weeks after STZ injection using a blood glucose monitoring system (AccuChek Active, Roche, France). Blood samples (5 µL) for the measurement of glucose concentration were obtained from the mouse tail vein. The animals were defined as diabetic when their blood glucose concentration exceeded 300 mg/dL and only those mice were used as diabetic mice in further tests. The body weight of mice was monitored 1 h before and 21 days after STZ injection.
Assessment of heat hyperalgesia in STZ-treated mice—hot plate test. Thermal hyperalgesia was assessed using the hot plate apparatus (Bioseb, France). In this test, after the establishment of pre-drug latency to pain reaction for each animal, the mice were treated with the tested compound and 30 min later they were placed into a glass cylinder on a hot plate set at 55 °C and observed for a nocifensive response (hind paw licking or jumping). The cut-off time was established at 30 s.

α1 (non-selective) = test: Radioligand binding; set-up: species or system rat
hERG = biological target: T1, hERG (Homo sapiens, UniProt Q12809); test: Radioligand binding; details: read-out: % of control specific binding
T1 construct: purchased Eurofins CEREP
T1 sequence (Q12809 whole entry): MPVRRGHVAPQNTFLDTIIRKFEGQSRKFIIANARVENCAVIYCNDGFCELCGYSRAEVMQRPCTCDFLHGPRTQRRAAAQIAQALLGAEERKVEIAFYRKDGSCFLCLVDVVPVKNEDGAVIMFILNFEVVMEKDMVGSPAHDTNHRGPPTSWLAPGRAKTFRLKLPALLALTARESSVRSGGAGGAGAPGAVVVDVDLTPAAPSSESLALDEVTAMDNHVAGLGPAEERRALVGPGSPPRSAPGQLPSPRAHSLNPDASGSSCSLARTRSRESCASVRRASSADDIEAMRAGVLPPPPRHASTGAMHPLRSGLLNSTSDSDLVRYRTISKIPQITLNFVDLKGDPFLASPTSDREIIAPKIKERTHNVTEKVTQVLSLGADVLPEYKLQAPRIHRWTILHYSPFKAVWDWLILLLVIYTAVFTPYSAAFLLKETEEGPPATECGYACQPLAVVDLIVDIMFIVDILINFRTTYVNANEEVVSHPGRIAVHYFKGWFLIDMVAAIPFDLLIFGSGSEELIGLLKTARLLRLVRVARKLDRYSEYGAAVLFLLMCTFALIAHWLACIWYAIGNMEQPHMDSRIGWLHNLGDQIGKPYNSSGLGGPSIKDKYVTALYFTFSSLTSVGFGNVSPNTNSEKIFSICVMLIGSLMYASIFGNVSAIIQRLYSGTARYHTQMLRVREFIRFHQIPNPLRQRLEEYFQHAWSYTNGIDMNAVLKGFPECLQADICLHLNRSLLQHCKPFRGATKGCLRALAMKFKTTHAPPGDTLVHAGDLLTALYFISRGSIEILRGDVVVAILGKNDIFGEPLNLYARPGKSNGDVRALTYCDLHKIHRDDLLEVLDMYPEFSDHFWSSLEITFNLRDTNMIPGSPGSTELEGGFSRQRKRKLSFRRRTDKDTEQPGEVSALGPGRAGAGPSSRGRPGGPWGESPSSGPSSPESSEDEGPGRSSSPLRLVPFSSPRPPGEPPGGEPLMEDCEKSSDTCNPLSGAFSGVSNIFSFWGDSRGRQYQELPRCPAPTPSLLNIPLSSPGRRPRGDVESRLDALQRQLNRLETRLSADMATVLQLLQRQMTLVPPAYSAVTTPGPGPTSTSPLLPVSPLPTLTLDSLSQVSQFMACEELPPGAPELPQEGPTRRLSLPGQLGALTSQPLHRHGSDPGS
Description: Radioligand binding. Radioligand binding assays were performed at Eurofins CEREP (France). The results are expressed as a percent of control specific binding (measured specific binding*100/control specific binding) and as a percent inhibition of control specific binding (100-(measured specific binding*100)/control specific binding) obtained in the presence of the test compounds. The IC50 values (concentration causing a half-maximal inhibition of control specific binding) and Hill coefficients (nH) were determined by non-linear regression analysis of the competition curves generated with mean replicate values using Hill equation curve fitting (Y = D + [A-D]/[1 + (C/C50)^nH], where Y = specific binding, A = left asymptote of the curve, D = right asymptote of the curve, C = compound concentration, C50 = IC50, and nH = slope factor). […] The inhibition constants (Ki) were calculated using the Cheng Prusoff equation (Ki = IC50/[1 + L/KD], where L = concentration of radioligand in the assay, and KD = affinity of the radioligand for the receptor).

murine astrocytes = test: Crystal violet (CV) assay; format: cell-based
Description: CV assay. Cells were seeded at a density of 1 × 10^4 cells per well in 96-well plates.

anaesthetized rat = test: Effect on normal electrocardiogram; format: in vivo, rats;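 also: standard lead II ECG run at 50 mm/s, taken before dosing and at serial times up to 60 min after iv or 90 min after po administration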
Description: The effect on normal electrocardiogram. In vivo electrocardiographic investigations were carried out on using ASPEL ASCARD B5, (Aspel, Poland) apparatus, standard lead II, and paper speed of 50 mm/s. The ECG was recorded just prior to and also 1, 2, 3, 5, 10, 15, 20, 30, 40, 50, and 60 min following the iv or 5, 10, 20, 30, 40, 50, 60, 70, 80, 90 following the po administration of the compound.

Compound: CCC(CO)NCCOc1c(C)cccc1Cl (stereo not drawn) [Compound 4, R,S-2-((2-(2-chloro-6-methylphenoxy)ethyl)amino)butan-1-ol]
- % of control specific binding (P2X): 100.6%
- % of control specific binding (KV channel): 104.2%
- % of control specific binding (Cl- channel (GABA-gated)): 99.6%
- % of control specific binding (PCP): 72.6%
- % of control specific binding (GABA (non-selective)): 109.3%
- % of control specific binding (SKCa channel): 90.5%
- % of control specific binding (P2Y): 102.2%
- % of control specific binding (BB (non-selective)): 104.6%

Compound: CCC(CO)NCCOc1c(C)cccc1Cl (stereo not drawn) [KM-408, R,S-2-((2-(2-chloro-6-methylphenoxy)ethyl)amino)butan-1-ol hydrochloride]
- effect in hot plate test (STZ-treated mice; 1 mg/kg, STZ-treated mice): not effective
- latency to pain reaction (STZ-treated mice; 10 mg/kg, STZ-treated mice): 15.8 ± 2.2 s
- prolongation of latency vs. diabetic control (STZ-treated mice; 10 mg/kg, STZ-treated mice): 63%
- latency to pain reaction (STZ-treated mice; 30 mg/kg, STZ-treated mice): 21.6 ± 2.2 s
- prolongation of latency vs. diabetic control (STZ-treated mice; 30 mg/kg, STZ-treated mice): 123%
- STZ-induced pain (hot plate): active at (STZ-treated mice; mice, ip): 10 mg/kg
- IC50 (α1 (non-selective)): 12 µM
- Ki (α1 (non-selective)): 3.3 µM
- % of control specific binding (α1 (non-selective); 0.01 μM): 102.4%
- % of control specific binding (α1 (non-selective); 0.1 μM): 97.3%
- % of control specific binding (α1 (non-selective); 1 μM): 90.0%
- % of control specific binding (α1 (non-selective); 10 μM): 55.9%
- % of control specific binding (α1 (non-selective); 100 μM): 12.8%
- activity at 100 µM (hERG): 26.1%
- impact on proliferation (crystal violet) (murine astrocytes): did not exhibit cytotoxic activity and a notable impact on proliferation
- PQ (anaesthetized rat; 5 mg/kg iv, 0 min): 50.5 ± 2.6 ms
- QT (anaesthetized rat; 5 mg/kg iv, 0 min): 56.8 ± 3.8 ms
- PQ (anaesthetized rat; 5 mg/kg iv, 1 min): 59.5 ± 5.3 ms
- QT (anaesthetized rat; 5 mg/kg iv, 1 min): 58.0 ± 3.4 ms
- PQ (anaesthetized rat; 5 mg/kg iv, 3 min): 54.8 ± 2.9 ms
- QT (anaesthetized rat; 5 mg/kg iv, 3 min): 60.0 ± 2.8 ms
- PQ (anaesthetized rat; 5 mg/kg iv, 5 min): 54.4 ± 2.3 ms
- QT (anaesthetized rat; 5 mg/kg iv, 5 min): 56.8 ± 3.9 ms
- PQ (anaesthetized rat; 5 mg/kg iv, 10 min): 54.0 ± 1.9 ms
- QT (anaesthetized rat; 5 mg/kg iv, 10 min): 56.2 ± 4.2 ms
- PQ (anaesthetized rat; 5 mg/kg iv, 15 min): 54.4 ± 1.9 ms
- QT (anaesthetized rat; 5 mg/kg iv, 15 min): 55.2 ± 4.1 ms
- PQ (anaesthetized rat; 5 mg/kg iv, 20 min): 54.4 ± 2.0 ms
- QT (anaesthetized rat; 5 mg/kg iv, 20 min): 56.0 ± 4.0 ms
- PQ (anaesthetized rat; 5 mg/kg iv, 30 min): 54.8 ± 1.7 ms
- QT (anaesthetized rat; 5 mg/kg iv, 30 min): 57.2 ± 3.7 ms
- PQ (anaesthetized rat; 5 mg/kg iv, 40 min): 53.6 ± 2.2 ms
- QT (anaesthetized rat; 5 mg/kg iv, 40 min): 57.0 ± 3.7 ms
- PQ (anaesthetized rat; 5 mg/kg iv, 50 min): 53.6 ± 2.6 ms
- QT (anaesthetized rat; 5 mg/kg iv, 50 min): 58.8 ± 3.4 ms
- PQ (anaesthetized rat; 5 mg/kg iv, 60 min): 53.6 ± 1.5 ms
- QT (anaesthetized rat; 5 mg/kg iv, 60 min): 56.0 ± 4.0 ms
- influence on heart rate or ECG intervals (anaesthetized rat; 50 mg/kg po): did not influence
- PQ (anaesthetized rat; 50 mg/kg po, 0 min): 55.6 ± 1.8 ms
- QT (anaesthetized rat; 50 mg/kg po, 0 min): 55.2 ± 3.9 ms
- PQ (anaesthetized rat; 50 mg/kg po, 5 min): 59.2 ± 1.9 ms
- QT (anaesthetized rat; 50 mg/kg po, 5 min): 60.0 ± 0.0 ms
- PQ (anaesthetized rat; 50 mg/kg po, 10 min): 59.6 ± 2.1 ms
- QT (anaesthetized rat; 50 mg/kg po, 10 min): 59.2 ± 0.8 ms
- PQ (anaesthetized rat; 50 mg/kg po, 20 min): 59.0 ± 1.0 ms
- QT (anaesthetized rat; 50 mg/kg po, 20 min): 58.0 ± 2.0 ms
- PQ (anaesthetized rat; 50 mg/kg po, 30 min): 57.4 ± 1.2 ms
- QT (anaesthetized rat; 50 mg/kg po, 30 min): 58.4 ± 1.0 ms
- PQ (anaesthetized rat; 50 mg/kg po, 40 min): 59.2 ± 1.5 ms
- QT (anaesthetized rat; 50 mg/kg po, 40 min): 59.2 ± 0.8 ms
- PQ (anaesthetized rat; 50 mg/kg po, 50 min): 58.4 ± 1.0 ms
- QT (anaesthetized rat; 50 mg/kg po, 50 min): 58.8 ± 1.2 ms
- PQ (anaesthetized rat; 50 mg/kg po, 60 min): 58.4 ± 1.6 ms
- QT (anaesthetized rat; 50 mg/kg po, 60 min): 58.8 ± 1.2 ms
- PQ (anaesthetized rat; 50 mg/kg po, 70 min): 59.6 ± 1.0 ms
- QT (anaesthetized rat; 50 mg/kg po, 70 min): 61.2 ± 4.2 ms
- PQ (anaesthetized rat; 50 mg/kg po, 80 min): 59.6 ± 0.4 ms
- QT (anaesthetized rat; 50 mg/kg po, 80 min): 60.0 ± 0.0 ms
- PQ (anaesthetized rat; 50 mg/kg po, 90 min): 59.6 ± 1.3 ms
- QT (anaesthetized rat; 50 mg/kg po, 90 min): 60.0 ± 0.0 ms
- PQ (anaesthetized rat; 300 mg/kg po, 0 min): 51.6 ± 3.6 ms
- QT (anaesthetized rat; 300 mg/kg po, 0 min): 58.0 ± 2.0 ms
- PQ (anaesthetized rat; 300 mg/kg po, 5 min): 51.2 ± 3.4 ms
- QT (anaesthetized rat; 300 mg/kg po, 5 min): 57.2 ± 2.0 ms
- PQ (anaesthetized rat; 300 mg/kg po, 10 min): 54.8 ± 2.1 ms
- QT (anaesthetized rat; 300 mg/kg po, 10 min): 55.6 ± 2.0 ms
- PQ (anaesthetized rat; 300 mg/kg po, 20 min): 55.2 ± 2.2 ms
- QT (anaesthetized rat; 300 mg/kg po, 20 min): 58.0 ± 2.0 ms
- PQ (anaesthetized rat; 300 mg/kg po, 30 min): 55.2 ± 2.2 ms
- QT (anaesthetized rat; 300 mg/kg po, 30 min): 58.0 ± 2.0 ms
- PQ (anaesthetized rat; 300 mg/kg po, 40 min): 55.2 ± 2.1 ms
- QT (anaesthetized rat; 300 mg/kg po, 40 min): 59.2 ± 0.8 ms
- PQ (anaesthetized rat; 300 mg/kg po, 50 min): 55.8 ± 2.8 ms
- QT (anaesthetized rat; 300 mg/kg po, 50 min): 60.0 ± 0.0 ms
- PQ (anaesthetized rat; 300 mg/kg po, 60 min): 56.0 ± 2.8 ms
- QT (anaesthetized rat; 300 mg/kg po, 60 min): 59.2 ± 0.8 ms
- PQ (anaesthetized rat; 300 mg/kg po, 70 min): 55.4 ± 2.3 ms
- QT (anaesthetized rat; 300 mg/kg po, 70 min): 60.0 ± 0.0 ms
- PQ (anaesthetized rat; 300 mg/kg po, 80 min): 56.0 ± 2.4 ms
- QT (anaesthetized rat; 300 mg/kg po, 80 min): 60.0 ± 0.0 ms
- PQ (anaesthetized rat; 300 mg/kg po, 90 min): 56.0 ± 2.4 ms
- QT (anaesthetized rat; 300 mg/kg po, 90 min): 59.6 ± 0.4 ms
